Reference: patent US20110059114A1, “Compositions and Methods for the Treatment of Radioresistant Glioma Stem Cells” (DUKE UNIVERSITY, priority 2009, published 2011)

Columns and labels:
Assay type in all cases: cell-based, human
[1] = system: T4302 CD133+ glioma stem cells; experiment: Growth curve, CellTiter-Glo Luminescent Cell Viability Assay; conditions: without radiation treatment, day five; 2 μM DAPT or 0.5 μM L685,458
Excerpt: (§1) FIG. 1 is a series of graphs illustrating that γ-secretase inhibitors reduce cell growth and clonogenic survival of glioma stem cells following radiation. (A) T4302 CD133+ glioma stem cells were transfected with a Notch-responsive luciferase reporter (RBP-JK reporter) pre-mixed with the vector directing constitutive expression of Renilla luciferase. Cells were left unirradiated or irradiated at 3 Gy, and were then collected to measure luciferase activities at time points as indicated. […] The relative mRNA levels of Hes2 were determined by quantitative real-time PCR at the time points as indicated. […] Total viable cell numbers were then determined by the CellTiter-Glo Luminescent Cell Viability Assay (Promega) for the following five days. […] Cells were then plated to form neurospheres, and the surviving fractions were determined as described in methods. […] (F,G) Neurosphere formation of T3359 and T4105 CD 133+ cells treated with GSIs alone, 3-Gy radiation alone, or the combination was determined as described in FIG. 1E. *: p<0.05 by Student's t-test; #: p<0.001 by one-way ANOVA.
Growth Curve, caspase 3/7 assay, and clonogenic survival assay. […] Cell number was measured for 5 days using the CellTiter-Glo assay kit (Promega, Madison, […].). […]

CD133+ glioma stem cells = experiment: Clonogenic survival assay (neurosphere formation); conditions: T4302, 3-Gy radiation
Excerpt: as §1
To measure clonogenic survival, CD133+ glioma cells were plated in 24-well plates at 50 cells per well for the sham-irradiated groups, 100 cells per well for cells irradiated at 1 Gy, or 500 cells per well for cells irradiated at 2 or 3 Gy. […] Fourteen days after plating, neurospheres containing more than 50 cells were scored. […]

Mcl-1 = experiment: Immunoblotting of Mcl-1; conditions: 2 μM DAPT, T4302 CD133+ cells
Procedure: FIG. 5 is a set of immunoblots and a graph illustrating that the Notch pathway regulates radioresistance of glioma stem cells via the Akt pathway and Mcl-1. T4302 CD 133+ cells were infected with control lentivirus or lentivirus directing expression of NICD2. Cells were pre-treated with or without 2 μM DPAT for 4 hours and exposed to 3-Gy radiation. Irradiated cells were collected at 24 or 48 hours after radiation, and sham-irradiated cells were collected at 48 hours after radiation. (A, C, D) Protein levels of phospho-Akt (S473), total Akt, PTEN, Bcl-2, Bcl-xL, Mcl-1, phospho-p53 (S15), total p53 and PUMA were assessed by immunoblotting. Actin was blotted as the loading control. (B) Control cells or NICD2-expressing cells were pre-treated with 10 μM PI3K inhibitor, LY294002, or 50 μM Akt inhibitor III (SH-6), for 4 hours prior to radiation exposure. Relative caspase 3/7 activities were determined at 48 hours after radiation exposure. #: p<0.001, by one-way ANOVA.
Antibodies, DNA constructs, lentiviruses and other reagents. The antibodies purchased from Cell Signaling Technology (Danvers, M A) include phosphor-S296-Chk1 (2349), total Chk1 (2345), phosphor-T68-Chk2 (2661), total Chk2 (2662), phospho-5473 Akt (#9271), total Akt (#9272), PTEN (#9556), phospho-S15-p53 (#9286), Bcl-2 (#2870), Bcl-xL (#2764), Mcl-1 (#4572), Puma (#4976). […]

CC(NC(=O)Cc1cc(F)cc(F)c1)C(=O)NC(C(=O)OC(C)(C)C)c1ccccc1 [DAPT, N-[N-(3,5-Difluorophenacetyl-L-alanyl)]-S-phenylglycine t-Butyl Ester]
sham-treated cells more than GSI-treated cells (total cell number) [1]: 25% | clonogenic survival of irradiated NICD2-expressing cells (CD133+ glioma stem cells): did not significantly alter | levels of Mcl-1 (Mcl-1): decreased | levels of Mcl-1 proteins of a smaller size (Mcl-1): increased
